This is an account of results in patent US20260183301A1, “TREATING DISEASES AND DISORDERS WITH IRAK4-MODIFYING COMPOUNDS” (Curis, Inc., priority 2022, published 2026).

The structures appear in SMILES notation. Entries after “also recorded” stand apart in the source; their conditions may differ.

Data set [1] has as its system cytokine. In words: Pharmacodynamic cytokine changes in Phase I NHL patients. The class given is in vivo, human.
Data set [2] concerns Waldenstrom's macroglobulinemia (WM). In words: Phase 1 dose-escalation study, WM patient case: serum IgM, m-protein and response. The format is in vivo, human. An excerpt:
The patient remained asymptomatic for over 4 years with a slow increase in m-protein and IgM during that time. By mid-2017 they started to experience increased fatigue. […] There was no evidence of CXCR4 genomic alteration. […] Several options were discussed including clinical trials and standard of care Bruton's tyrosine kinase inhibitor (BTKi) therapy.
Quantitative immunoglobulins and serum protein electrophoresis were obtained each cycle to determine response to treatment (FIG. 1).
The patient initiated treatment at the first dose level, 50 mg. […] Using a standard 3+3 design the subsequent dose level, 100 mg po BID, was cleared per protocol. […] They reported a significant improvement in their quality of life with resolution of fatigue and returned to a rigorous daily exercise program that they had been unable to perform for the last 2 years due to WM-related symptoms. […] Based on evolving safety data at higher dose levels, the patient was escalated to […] starting with cycle 20 in 1/2020.

Data set [3] deals with AML or high risk MDS. In words: Phase 1 study in AML or high risk MDS: marrow response. The class given is in vivo, human. As to the method:
(§1) This study will be conducted in 2 parts: an initial dose escalation and dose expansion phase. […] Three patients with AML or MDS will be enrolled at the designated dose. If none of the first 3 patients experience a DLT during the first cycle, patients may be enrolled into the next higher dose level of 300 mg bid until a safe and effective RP2D is established.
(§2) This study is expected to enroll approximately 18 patients to establish the initial RP2D.
(§3) The major study inclusion and exclusion criteria are as follows: Relapsed or refractory AML (primary or secondary, including treatment-related) after at least one standard treatment (including chemotherapy, re-induction therapy or stem cell transplantation) based on the assessment of the investigator or high/very high risk relapsed/refractory MDS (IPSS—R criteria), following at least 6 cycles of hypomethylating agents [HMA] or evidence of early progression.

The subject of data set [4] is NF-kB p-p50 S337. The experiment in a line: Western blot of NF-kB p-p50 S337 in OCL-LY10 cells. The note with it: 3 μM and 10 μM, 48 h, vs DMSO. The class given is cell-based. As to the method:
(§4) At 48 h post-treatment, cell lysates were obtained. Protein sample concentration was quantified and equal amount 20 μg of whole protein extract was loaded in each well of SDS-polyacrylamide gel. Cell extracts were separated by 10% SDS-PAGE, transferred to nitrocellulose membrane, and probed as indicated. The following antibodies were used for immunoblot analysis: NF-kB p-p50 S337 (Santa Cruz Biotechnology) and b-actin (Cell Signaling Technology).
A general note: Immunoblotting shows a protein as a band on a membrane.

Data set [5] concerns NF-kB p-p50 S337. In words: Western blot of NF-kB p-p50 S337 in TF-1 (AML) cells. The class given is cell-based. To be noted: 3 μM and 10 μM, 48 h, vs DMSO. As to the method: as §4
Data set [6] deals with resistant or refractory, advanced NHL. The experiment in a line: Phase I dose escalation trial of oral monotherapy in NHL: tumor reduction. The class given is in vivo, human. To be noted: all doses.
Procedure: (§5) Seven dosing cohorts included 50 and 100 mg QD, and 50, 100, 200, 300, or 400 mg BID of daily continuous oral monotherapy in 21-Day cycles. Objective included safety and tolerance (primary), pk/pd and early efficacy (secondary), and biomarker correlations (exploratory). 31 patients with resistant or refractory, advanced NHL have been enrolled.
Data set [7] concerns NF-kappaB p-p50. The experiment in a line: IHC of NF-kappaB p-p50 in paired tumor biopsies of NHL patients before and after treatment. To be noted: paired tumor biopsy samples (3 cases) before and after treatment. The format is in vivo, human. As to the method: Formalin-fixed, paraffin-embedded sections of human tonsil and lymphoma were used. Tissue sections (5 μm) were deparaffinized, and antigen retrieval was carried out at 90-100° C. in citrate buffer for 10-40 min. The sections were incubated in 1% […] for 10 minutes to quench endogenous tissue peroxidase. Tissue sections were then incubated with primary NF-κB p-p50-specific antibody (at 1:300 dilution) for approximately 16 h at 4° C. The primary NF-κB p-p50-specific antibody used NF-κB p-p50 (S337), sc-271908 from Santa Cruz Biotechnology.
The slides were stained using a standard EnVision+System-HRP kit (DAKO, Carpinteria, CA) according to the manufacture's protocol. Immunohistochemical reactions were developed with diaminobenzidine as the chromogenic peroxidase substrate, and slides were counterstained with hematoxylin. Negative control samples included replacement of the primary antibody with nonimmune IgG1 (Dako).

Data set [8] can be described thus: Oral pharmacokinetics in humans. The class given is in vivo, human.
Procedure: as §5
The test system of data set [9] is THP-1 xerographs. In words: THP-1 leukemic xerographs: disease burden. The class given is in vivo. To be noted: 6 weeks of treatment at 12.5 mg/kg.
Data set [10] has as its system in vivo models of non-Hodgkin's lymphoma. In words: In vivo models of non-Hodgkin's lymphoma: tumor growth. The note with it: FIGS. 22A-C, each model.
Data set [11] is described as follows: Phase 1 study in AML or high risk MDS: safety (DLT). The class given is in vivo. As to the method: as §1, §2, §3

Take `Cc1cc(-c2nc(C(=O)Nc3cc4oc(N5CCOCC5)nc4nc3N3CC[C@@H](O)C3)co2)ccn1` [Compound 1, emavusertib]: the “pharmacodynamic changes in cytokines” value in data set [1] is listed as “cytokine reductions”. For the same compound, the “fatigue (baseline symptom)” value in [2] (WM patient, 200 mg po BID, by summer of 2019) was “completely resolved”. For the same compound, the “dose dependence of response / tumor burden” value in [2] (human patient with intra-patient dose escalation) is recorded as “shrinking in a dose-dependent manner; also recorded: dose/response relationship; also recorded: dose-dependent objective response”. In addition, the marrow blasts result in data set [3] (all initial patients, cycle 1) is “marrow blast reduction”. In addition, the marrow complete responses entry in data set [3] (initial patients, cycle 1) is “several marrow complete responses”. Moreover, the clinical activity entry in data set [3] (relapsed/refractory AML and high-risk MDS, ongoing Phase 1 study) is on record as “clinical activity”. For the same compound, the “expression of NF-kB p-p50 S337” value in data set [4] and in data set [5] was “downregulated” in each case. Further, the “evaluable patients with overall tumor burden decreases of ≥20% from baseline” value in data set [6] is listed as “Eight of 28”. The “NF-kappaB p-p50 expression in tumors” value in data set [7] is “significant downregulation; also recorded: inhibited”. In addition, the accumulation entry in data set [8] (multiple daily single dose administration) is “Minimal to no accumulation”; in data set [8] (steady state, multiple twice daily dose administration), “Moderate accumulation”. Also, the absorption result in data set [8] (oral administration) is reported as “rapidly absorbed”. Also, the exposure versus dose result in data set [8] (oral administration) was “dose-proportional increase in exposure”. Moreover, the “time of maximum plasma concentrations” value in data set [8] (oral administration, post dose) was in the range of 0.5 to 8 h. In [9], the disease burden entry is listed as “decreased the disease burden”. Besides, in data set [10], the tumor growth entry is reported as “reduced tumor growth”. The DLT entry in data set [11] (Cohort 1, 200 mg BID, 3 patients with hr-MDS, 1st cycle) is given as “No DLT”; in data set [11] (Cohort 2, 300 mg BID, first 3 patients) it was “No DLT”. In data set [11] (Cohort 1, 200 mg BID, C2), the “dose reduction for Gr. 3 dizziness” value is 1.
